PubChem BioAssay (NCI)
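Growth conditions: 96-well plates. Treatment: test compound, 48 hours, 5 concentrations. Analysis: linear interpolation between bracketing concentrations; unreached endpoints set to highest concentration. Here, GI50 denotes the concentration required for 50% inhibition of growth. Definition used: TGI = concentration required for complete inhibition of growth.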

Assays:
Experiment in all cases: inhibition of tumour cell growth, NCI panel, 48 h
[1] = test system: RPMI-8226 leukemia
[2] = test system: U251 CNS
[3] = test system: EKVX NSCLC
[4] = test system: HCT-15 colon
[5] = test system: SK-MEL-2 melanoma
[6] = test system: SR leukemia
[7] = test system: ACHN renal
[8] = test system: K-562 leukemia
[9] = test system: CAKI-1 renal
[10] = test system: A549 NSCLC
[11] = test system: SN12C renal
[12] = test system: DU-145 prostate
[13] = test system: TK-10 renal
[14] = test system: HCT-116 colon
[15] = test system: HT29 colon
[16] = test system: SK-OV-3 ovarian
[17] = test system: HL-60(TB) leukemia
[18] = test system: SF-268 CNS
[19] = test system: NCI-H522 lung
[20] = test system: MDA-MB-468 breast
[21] = test system: HOP-92 NSCLC
[22] = test system: MALME-3M melanoma
[23] = test system: SW-620 colon
[24] = test system: A498 renal
[25] = test system: HS 578T breast
[26] = test system: SF-295 CNS
[27] = test system: OVCAR-5 ovarian
[28] = test system: HOP-62 NSCLC
[29] = test system: NCI-H226 lung

Question: With `O=C(NN1C(=O)/C(=C/C=C/c2ccc([N+](=O)[O-])o2)SC1=S)c1ccccc1O` as the compound, how does the GI50 [1] read?
Answer: 0.379 µM

Question: What about the TGI [1] of the same compound?
Answer: 2.53 µM

Question: And the GI50 [2]?
Answer: 1.27 µM

Question: And the TGI [2]?
Answer: 2.62 µM

Question: And the GI50 [3]?
Answer: 1.37 µM

Question: And the TGI [3]?
Answer: 2.75 µM

Question: What about the GI50 [4] of the same compound?
Answer: 0.149 µM

Question: What about the TGI [4] of the same compound?
Answer: 0.34 µM

Question: What about the GI50 [5] of the same compound?
Answer: 0.663 µM

Question: What about the TGI [5] of the same compound?
Answer: 2.06 µM

Question: What about the GI50 [6] of the same compound?
Answer: 0.221 µM

Question: What about the TGI [6] of the same compound?
Answer: > 100 µM

Question: What about the GI50 [7] of the same compound?
Answer: 1.46 µM

Question: And the TGI [7]?
Answer: 2.78 µM

Question: And the GI50 [8]?
Answer: 0.276 µM

Question: What about the TGI [8] of the same compound?
Answer: > 33.3 µM

Question: And the GI50 [9]?
Answer: 1.33 µM

Question: What about the TGI [9] of the same compound?
Answer: 2.67 µM

Question: And the GI50 [10]?
Answer: 2.98 µM

Question: And the TGI [10]?
Answer: 10.5 µM

Question: And the GI50 [11]?
Answer: 0.237 µM

Question: What about the TGI [11] of the same compound?
Answer: 0.714 µM

Question: And the GI50 [12]?
Answer: 1.59 µM

Question: And the TGI [12]?
Answer: 3.02 µM

Question: And the GI50 [13]?
Answer: 1.96 µM

Question: What about the TGI [13] of the same compound?
Answer: 4.19 µM

Question: And the GI50 [14]?
Answer: 0.197 µM

Question: What about the TGI [14] of the same compound?
Answer: 0.395 µM

Question: What about the GI50 [15] of the same compound?
Answer: 1 µM

Question: And the TGI [15]?
Answer: 2.78 µM

Question: And the GI50 [16]?
Answer: 2.26 µM

Question: What about the TGI [16] of the same compound?
Answer: 5.28 µM

Question: What about the GI50 [17] of the same compound?
Answer: 1.73 µM

Question: What about the TGI [17] of the same compound?
Answer: 9.47 µM

Question: What about the GI50 [18] of the same compound?
Answer: 1.8 µM

Question: What about the TGI [18] of the same compound?
Answer: 4.2 µM

Question: What about the GI50 [19] of the same compound?
Answer: 0.262 µM

Question: What about the TGI [19] of the same compound?
Answer: 0.749 µM

Question: And the GI50 [20]?
Answer: 1.4 µM

Question: What about the TGI [20] of the same compound?
Answer: 3.07 µM

Question: And the GI50 [21]?
Answer: 1.68 µM

Question: And the TGI [21]?
Answer: 4.13 µM

Question: And the GI50 [22]?
Answer: 0.223 µM

Question: And the TGI [22]?
Answer: 0.507 µM

Question: And the GI50 [23]?
Answer: 0.196 µM

Question: What about the TGI [23] of the same compound?
Answer: 0.426 µM

Question: And the GI50 [24]?
Answer: 18.3 µM

Question: What about the TGI [24] of the same compound?
Answer: 32.6 µM

Question: And the GI50 [25]?
Answer: 2.1 µM

Question: What about the TGI [25] of the same compound?
Answer: 7.47 µM

Question: And the GI50 [26]?
Answer: 1.79 µM

Question: What about the TGI [26] of the same compound?
Answer: 3.42 µM

Question: What about the GI50 [27] of the same compound?
Answer: 1.84 µM

Question: And the TGI [27]?
Answer: 3.3 µM

Question: What about the GI50 [28] of the same compound?
Answer: 1.62 µM

Question: What about the TGI [28] of the same compound?
Answer: 3.11 µM

Question: And the GI50 [29]?
Answer: 1.11 µM

Question: And the TGI [29]?
Answer: 2.69 µM
